Test results as given in ChEMBL document CHEMBL5523738, “Lipid Trolling to Optimize A3 Adenosine Receptor-Positive Allosteric Modulators (PAMs)” (J Med Chem, 2024).
Blank lines part the entries; values can stand above or below the compound they belong to. Activity calls are given as the source filed them. No cut-off for these calls is given here.

Legend:
[1] = target: T1, Adenosine receptor A3 (Mus musculus) (UniProt Q61618); test: Orthosteric antagonist activity at full length mouse A3 adenosine receptor transfected in HEK293 cell membranes assessed as inhibition of [125I]I-AB-MECA binding at equilibrium at 10 uM by gamma counter method; settings: Membrane, filed as antagonist
T1 sequence (whole entry): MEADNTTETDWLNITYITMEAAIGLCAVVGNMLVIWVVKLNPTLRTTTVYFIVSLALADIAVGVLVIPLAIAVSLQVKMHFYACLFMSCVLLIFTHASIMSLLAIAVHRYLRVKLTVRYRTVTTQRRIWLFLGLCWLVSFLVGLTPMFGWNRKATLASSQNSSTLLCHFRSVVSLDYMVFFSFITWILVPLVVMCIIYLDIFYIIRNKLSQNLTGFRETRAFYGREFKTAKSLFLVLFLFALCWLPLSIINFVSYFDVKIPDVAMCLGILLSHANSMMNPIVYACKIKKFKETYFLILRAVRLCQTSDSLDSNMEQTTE

[2] = target: T2, Adenosine receptor A3 (Homo sapiens) (UniProt P0DMS8); test: Positive allosteric modulation of human A3 adenosine receptor transfected in HEK293 cell membranes assessed as potentiation of 5-(2-chloro-6-((3-iodobenzyl)amino)-9H-purin-9-yl)-3,4-dihydroxy-N-methyltetrahydrofuran-2-carboxamide induced [35S]GTP-gammaS binding by measuring fold increase in agonist …; settings: Membrane, filed as positive allosteric modulator, dose 1.0 µM, time 3.0 hrs
T2 sequence (whole entry): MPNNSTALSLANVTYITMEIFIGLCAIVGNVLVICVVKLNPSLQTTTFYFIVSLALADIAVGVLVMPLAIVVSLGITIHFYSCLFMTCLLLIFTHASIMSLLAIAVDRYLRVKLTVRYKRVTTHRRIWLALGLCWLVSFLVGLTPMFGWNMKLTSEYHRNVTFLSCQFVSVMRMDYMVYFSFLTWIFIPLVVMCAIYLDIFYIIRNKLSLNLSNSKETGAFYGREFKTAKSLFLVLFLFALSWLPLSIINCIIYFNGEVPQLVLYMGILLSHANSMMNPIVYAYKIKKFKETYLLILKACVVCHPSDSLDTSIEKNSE

[3] = target: T1, Adenosine receptor A3 (Mus musculus); test: (§1) Positive allosteric modulation of full length mouse A3 adenosine receptor transfected in HEK293 cell membranes assessed as slow down of [125I]I-AB-MECA dissociation rate at 10 uM preincubated with radioligand for 3 hrs followed by NECA and compound addition and measured upto 180 mins by gamma counter method; settings: Membrane, filed as positive allosteric modulator
[4] = target: T2, Adenosine receptor A3 (Homo sapiens); test: Orthosteric antagonist activity at human A3 adenosine receptor transfected in HEK293 cell membranes assessed as inhibition of [125I]I-AB-MECA binding at equilibrium at 10 uM measured for 18 hrs by gamma counter method; settings: Membrane, filed as antagonist
[5] = target: T2, Adenosine receptor A3 (Homo sapiens); test: Positive allosteric modulation of human A3 adenosine receptor transfected in HEK293 cell membranes assessed as slow down of [125I]I-AB-MECA dissociation rate at 10 uM preincubated with radioligand for 3 hrs followed by NECA and compound addition and measured after 60 mins by gamma counter method; settings: Membrane, filed as positive allosteric modulator
Homo sapiens = species: Homo sapiens; test: Binding affinity to BZP receptor (unknown origin)
[6] = target: D(2) dopamine receptor (Homo sapiens) (UniProt P14416); test: Binding affinity to D2 receptor (unknown origin)
Sequence of D(2) dopamine receptor (Homo sapiens) (P14416 whole entry): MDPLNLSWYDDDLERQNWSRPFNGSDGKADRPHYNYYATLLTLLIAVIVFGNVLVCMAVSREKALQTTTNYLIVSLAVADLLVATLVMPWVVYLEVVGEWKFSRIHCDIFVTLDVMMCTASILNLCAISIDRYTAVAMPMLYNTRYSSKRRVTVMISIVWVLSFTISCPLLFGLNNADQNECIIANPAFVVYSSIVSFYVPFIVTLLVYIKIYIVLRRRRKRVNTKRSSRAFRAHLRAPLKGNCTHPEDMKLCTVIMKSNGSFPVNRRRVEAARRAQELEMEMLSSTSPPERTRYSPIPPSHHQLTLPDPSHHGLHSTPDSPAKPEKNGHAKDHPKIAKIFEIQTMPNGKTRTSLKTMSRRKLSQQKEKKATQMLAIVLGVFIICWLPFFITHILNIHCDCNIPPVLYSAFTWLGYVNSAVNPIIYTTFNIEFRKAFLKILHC

[7] = target: Muscarinic acetylcholine receptor M2 (Homo sapiens) (UniProt P08172); test: Binding affinity to M2 receptor (unknown origin)
Sequence of Muscarinic acetylcholine receptor M2 (Homo sapiens) (P08172 whole entry): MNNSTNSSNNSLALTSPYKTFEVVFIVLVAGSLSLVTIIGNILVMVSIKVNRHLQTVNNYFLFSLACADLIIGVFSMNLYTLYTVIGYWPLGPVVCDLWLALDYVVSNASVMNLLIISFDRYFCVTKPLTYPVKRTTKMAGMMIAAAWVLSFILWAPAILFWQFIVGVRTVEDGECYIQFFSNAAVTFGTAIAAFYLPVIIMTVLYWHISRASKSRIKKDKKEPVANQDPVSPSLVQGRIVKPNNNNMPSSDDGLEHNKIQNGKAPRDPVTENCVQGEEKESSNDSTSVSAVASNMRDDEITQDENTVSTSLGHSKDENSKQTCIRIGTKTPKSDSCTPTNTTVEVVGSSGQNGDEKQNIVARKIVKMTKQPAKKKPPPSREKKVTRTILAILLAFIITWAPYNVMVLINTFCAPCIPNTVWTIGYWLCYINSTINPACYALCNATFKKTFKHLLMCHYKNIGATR

[8] = target: Alpha-1D adrenergic receptor (Homo sapiens) (UniProt P25100); test: Binding affinity to alpha1D adrenergic receptor (unknown origin)
Sequence of Alpha-1D adrenergic receptor (Homo sapiens) (P25100 whole entry): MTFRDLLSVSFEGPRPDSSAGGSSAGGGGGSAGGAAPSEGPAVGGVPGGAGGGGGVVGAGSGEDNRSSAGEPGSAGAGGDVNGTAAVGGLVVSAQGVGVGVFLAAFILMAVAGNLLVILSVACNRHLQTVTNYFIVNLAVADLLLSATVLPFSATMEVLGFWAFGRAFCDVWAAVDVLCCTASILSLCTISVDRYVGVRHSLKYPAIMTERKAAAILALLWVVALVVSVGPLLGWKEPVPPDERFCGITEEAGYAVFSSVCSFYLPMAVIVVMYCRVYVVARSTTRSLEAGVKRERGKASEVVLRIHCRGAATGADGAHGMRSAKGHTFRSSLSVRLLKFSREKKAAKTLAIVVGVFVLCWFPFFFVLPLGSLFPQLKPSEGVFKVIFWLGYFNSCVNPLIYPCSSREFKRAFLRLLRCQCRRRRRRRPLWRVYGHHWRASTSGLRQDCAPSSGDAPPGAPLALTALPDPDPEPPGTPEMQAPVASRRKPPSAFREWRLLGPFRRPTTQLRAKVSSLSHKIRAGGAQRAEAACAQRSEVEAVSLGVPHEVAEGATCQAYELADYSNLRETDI

[9] = target: GABA-A receptor; anion channel (Homo sapiens) (UniProt P14867+P47870+P18507+P28472+P48169+Q99928+Q9UN88+P34903+O00591+O14764+Q8N1C3+P18505+P78334+P47869+P31644+Q16445); test: Binding affinity to GABA-A receptor (unknown origin); format: protein-complex assay
[10] = target: Muscarinic acetylcholine receptor M4 (Homo sapiens) (UniProt P08173); test: Binding affinity to M4 receptor (unknown origin)
[11] = target: Beta-2 adrenergic receptor (Homo sapiens) (UniProt P07550); test: Binding affinity to beta2 adrenergic receptor (unknown origin)
[12] = target: Kappa-type opioid receptor (Homo sapiens) (UniProt P41145); test: Binding affinity to KOR (unknown origin)
Sequence of Kappa-type opioid receptor (Homo sapiens) (P41145 whole entry): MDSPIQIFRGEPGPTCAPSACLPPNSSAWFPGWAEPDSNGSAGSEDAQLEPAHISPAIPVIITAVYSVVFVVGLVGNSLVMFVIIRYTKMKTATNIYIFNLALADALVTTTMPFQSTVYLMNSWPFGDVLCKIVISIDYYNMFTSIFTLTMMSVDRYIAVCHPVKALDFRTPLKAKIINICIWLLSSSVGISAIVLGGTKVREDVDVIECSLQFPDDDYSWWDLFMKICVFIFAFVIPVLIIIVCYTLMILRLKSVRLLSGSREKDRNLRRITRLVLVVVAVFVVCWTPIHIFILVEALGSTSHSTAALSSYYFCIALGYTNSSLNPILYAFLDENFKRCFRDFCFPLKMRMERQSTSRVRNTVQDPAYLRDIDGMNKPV

[13] = target: Mu-type opioid receptor (Homo sapiens) (UniProt P35372); test: Binding affinity to MOR (unknown origin)
Sequence of Mu-type opioid receptor (Homo sapiens) (P35372 whole entry): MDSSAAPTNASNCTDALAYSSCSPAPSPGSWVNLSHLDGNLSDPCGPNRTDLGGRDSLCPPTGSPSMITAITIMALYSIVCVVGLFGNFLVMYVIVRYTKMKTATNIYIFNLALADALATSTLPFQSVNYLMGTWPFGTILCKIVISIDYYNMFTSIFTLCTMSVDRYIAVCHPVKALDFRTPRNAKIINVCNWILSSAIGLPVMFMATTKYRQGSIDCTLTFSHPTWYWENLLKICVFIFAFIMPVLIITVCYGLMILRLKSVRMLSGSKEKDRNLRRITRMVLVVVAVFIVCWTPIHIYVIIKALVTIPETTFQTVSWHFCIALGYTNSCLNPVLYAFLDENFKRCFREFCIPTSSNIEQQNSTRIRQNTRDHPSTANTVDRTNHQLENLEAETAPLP

[14] = target: Alpha-1A adrenergic receptor (Homo sapiens) (UniProt P35348); test: Binding affinity to alpha1A adrenergic receptor (unknown origin)
Sequence of Alpha-1A adrenergic receptor (Homo sapiens) (P35348 whole entry): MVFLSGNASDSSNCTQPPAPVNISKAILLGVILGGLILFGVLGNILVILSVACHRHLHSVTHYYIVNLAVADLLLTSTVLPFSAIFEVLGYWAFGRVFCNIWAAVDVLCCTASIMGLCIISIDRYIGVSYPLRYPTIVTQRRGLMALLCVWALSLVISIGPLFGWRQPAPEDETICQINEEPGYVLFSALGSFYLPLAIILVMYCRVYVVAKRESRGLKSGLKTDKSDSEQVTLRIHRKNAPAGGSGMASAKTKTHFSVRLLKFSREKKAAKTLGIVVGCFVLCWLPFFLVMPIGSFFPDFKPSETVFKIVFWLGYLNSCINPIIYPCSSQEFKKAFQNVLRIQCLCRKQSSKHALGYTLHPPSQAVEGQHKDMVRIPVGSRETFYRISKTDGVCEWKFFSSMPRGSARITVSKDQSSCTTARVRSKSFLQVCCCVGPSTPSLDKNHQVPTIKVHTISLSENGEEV

[15] = target: Delta-type opioid receptor (Homo sapiens) (UniProt P41143); test: Binding affinity to DOR (unknown origin)
Sequence of Delta-type opioid receptor (Homo sapiens) (P41143 whole entry): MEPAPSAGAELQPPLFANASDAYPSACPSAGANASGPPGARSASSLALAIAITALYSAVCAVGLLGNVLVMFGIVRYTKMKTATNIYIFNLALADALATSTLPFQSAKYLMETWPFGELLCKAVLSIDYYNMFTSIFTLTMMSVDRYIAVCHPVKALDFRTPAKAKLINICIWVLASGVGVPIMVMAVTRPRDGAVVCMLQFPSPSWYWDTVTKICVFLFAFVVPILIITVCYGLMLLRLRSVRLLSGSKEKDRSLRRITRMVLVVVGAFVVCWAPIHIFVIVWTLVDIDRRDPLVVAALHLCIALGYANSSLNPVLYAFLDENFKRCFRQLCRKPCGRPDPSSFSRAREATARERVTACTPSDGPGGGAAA

[16] = target: Histamine H2 receptor (Homo sapiens) (UniProt P25021); test: Binding affinity to histamine H2 receptor (unknown origin)
Sequence of Histamine H2 receptor (Homo sapiens) (P25021 whole entry): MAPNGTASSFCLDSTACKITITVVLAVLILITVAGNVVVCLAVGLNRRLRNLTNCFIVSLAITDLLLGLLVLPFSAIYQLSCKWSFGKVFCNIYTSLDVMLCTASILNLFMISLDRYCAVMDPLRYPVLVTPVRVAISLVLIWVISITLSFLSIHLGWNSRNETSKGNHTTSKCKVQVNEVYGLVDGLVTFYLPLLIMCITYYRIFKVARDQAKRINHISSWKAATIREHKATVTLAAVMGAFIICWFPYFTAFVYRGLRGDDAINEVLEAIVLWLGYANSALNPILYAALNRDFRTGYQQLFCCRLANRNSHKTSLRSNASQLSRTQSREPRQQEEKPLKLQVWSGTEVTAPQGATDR

[17] = target: 5-hydroxytryptamine receptor 1E (Homo sapiens) (UniProt P28566); test: Binding affinity to 5-HT1E (unknown origin)
[18] = target: 5-hydroxytryptamine receptor 5A (Homo sapiens) (UniProt P47898); test: Binding affinity to 5-HT5A (unknown origin)
Sequence of 5-hydroxytryptamine receptor 5A (Homo sapiens) (P47898 whole entry): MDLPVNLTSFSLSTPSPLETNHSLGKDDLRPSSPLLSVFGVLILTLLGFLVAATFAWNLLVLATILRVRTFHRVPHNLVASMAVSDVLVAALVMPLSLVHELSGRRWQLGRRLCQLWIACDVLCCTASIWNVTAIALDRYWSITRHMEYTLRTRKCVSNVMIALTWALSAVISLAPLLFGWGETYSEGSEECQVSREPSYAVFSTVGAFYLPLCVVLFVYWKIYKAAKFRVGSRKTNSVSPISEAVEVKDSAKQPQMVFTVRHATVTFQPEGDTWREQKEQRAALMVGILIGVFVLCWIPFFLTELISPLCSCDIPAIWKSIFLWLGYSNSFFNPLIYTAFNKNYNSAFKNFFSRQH

[19] = target: D(1A) dopamine receptor (Homo sapiens) (UniProt P21728); test: Binding affinity to D1 receptor (unknown origin)
Sequence of D(1A) dopamine receptor (Homo sapiens) (P21728 whole entry): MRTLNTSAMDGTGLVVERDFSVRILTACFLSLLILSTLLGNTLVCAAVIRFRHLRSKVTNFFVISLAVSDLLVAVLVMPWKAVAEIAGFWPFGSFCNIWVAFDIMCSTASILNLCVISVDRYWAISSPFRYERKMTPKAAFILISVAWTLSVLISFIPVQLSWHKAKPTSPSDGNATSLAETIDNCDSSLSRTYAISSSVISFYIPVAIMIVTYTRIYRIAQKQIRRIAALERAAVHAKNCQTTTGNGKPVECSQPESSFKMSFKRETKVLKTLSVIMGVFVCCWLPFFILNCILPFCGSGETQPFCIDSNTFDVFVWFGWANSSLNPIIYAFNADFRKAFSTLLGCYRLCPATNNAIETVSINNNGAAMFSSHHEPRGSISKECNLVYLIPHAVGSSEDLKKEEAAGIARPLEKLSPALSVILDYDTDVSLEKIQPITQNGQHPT

[20] = target: 5-hydroxytryptamine receptor 3A (Homo sapiens) (UniProt P46098); test: Binding affinity to 5-HT3 (unknown origin)
[21] = target: Muscarinic acetylcholine receptor M1 (Homo sapiens) (UniProt P11229); test: Binding affinity to M1 receptor (unknown origin)
[22] = target: Beta-3 adrenergic receptor (Homo sapiens) (UniProt P13945); test: Binding affinity to beta3 adrenergic receptor (unknown origin)
Sequence of Beta-3 adrenergic receptor (Homo sapiens) (P13945 whole entry, looked up): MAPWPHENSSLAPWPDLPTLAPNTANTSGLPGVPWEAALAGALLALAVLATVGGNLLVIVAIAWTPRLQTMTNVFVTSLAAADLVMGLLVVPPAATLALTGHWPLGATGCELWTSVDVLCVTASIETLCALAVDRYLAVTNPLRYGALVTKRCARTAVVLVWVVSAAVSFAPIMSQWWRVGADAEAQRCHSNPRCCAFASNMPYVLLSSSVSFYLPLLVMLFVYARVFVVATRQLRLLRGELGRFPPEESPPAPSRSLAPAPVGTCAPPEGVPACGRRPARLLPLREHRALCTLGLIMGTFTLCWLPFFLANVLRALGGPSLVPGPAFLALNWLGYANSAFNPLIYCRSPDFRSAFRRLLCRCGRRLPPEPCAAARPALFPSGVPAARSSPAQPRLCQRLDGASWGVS

[23] = target: T2, Adenosine receptor A3 (Homo sapiens); test: (§2) Antagonist activity at human A3 adenosine receptor transfected in HEK293 cell membranes assessed as rightward shift in 5-(2-chloro-6-((3-iodobenzyl)amino)-9H-purin-9-yl)-3,4-dihydroxy-N-methyltetrahydrofuran-2-carboxamide activation curve pretreated for 1 hr followed by agonist addition and measured after 2 hrs by liquid scintillation counting method; format: functional; settings: Membrane, filed as antagonist, time 3.0 hrs
[24] = target: T2, Adenosine receptor A3 (Homo sapiens); test: as §2, with “curve at 10 uM” for “curve”; format: functional; settings: Membrane, time 3.0 hrs
[25] = target: T2, Adenosine receptor A3 (Homo sapiens); test: (§3) Positive allosteric modulation of human A3 adenosine receptor transfected in HEK293 cell membranes assessed as potentiation of 5-(2-chloro-6-((3-iodobenzyl)amino)-9H-purin-9-yl)-3,4-dihydroxy-N-methyltetrahydrofuran-2-carboxamide induced [35S]GTP-gammaS binding by measuring maximal efficacy of agonist at 0.01 uM pretreated for 1 hr followed by agonist addition and measured after 2 hrs by liquid scintillation counting method (reference value: 100 +/- 3%); settings: Membrane, filed as positive allosteric modulator, time 3.0 hrs
[26] = target: T2, Adenosine receptor A3 (Homo sapiens); test: Positive allosteric modulation of human A3 adenosine receptor transfected in HEK293 cell membranes assessed as potentiation of NECA induced ERK activation at 3 uM; settings: Membrane
[27] = target: T1, Adenosine receptor A3 (Mus musculus); test: as §1, with “reduction in” for “slow down of”, “0.1” for “10”; settings: Membrane
[28] = target: T2, Adenosine receptor A3 (Homo sapiens); test: Positive allosteric modulation of human A3 adenosine receptor transfected in HEK293 cell membranes assessed as potentiation of MRS5698 induced ERK activation at 3 uM; settings: Membrane
[29] = target: T2, Adenosine receptor A3 (Homo sapiens); test: Positive allosteric modulation of human A3 adenosine receptor transfected in HEK293 cell membranes assessed as potentiation of MRS5698 induced inhibition of cAMP formation by measuring fold increase in agonist potency at 3 uM relative to control; format: functional; settings: Membrane, filed as positive allosteric modulator
[30] = target: T2, Adenosine receptor A3 (Homo sapiens); test: Positive allosteric modulation of human A3 adenosine receptor transfected in HEK293 cell membranes assessed as potentiation of MRS5698 induced inhibition of cAMP formation by measuring maximal efficacy of agonist at 3 uM (reference value: 100%); format: functional; settings: Membrane, filed as positive allosteric modulator
[31] = target: T1, Adenosine receptor A3 (Mus musculus); test: as §1, with “assessed as reduction in [125I]I-AB-MECA dissociation” for “assessed as slow down of [125I]I-AB-MECA dissociation”, “rate at 1 to 10 uM” for “rate at 10 uM”; settings: Membrane, filed as positive allosteric modulator, dose 1-10 µM
[32] = target: Adenosine receptor A1 (Homo sapiens) (UniProt P30542); test: Positive allosteric modulation of human A1 adenosine receptor transfected in HEK293 cells assessed as potentiation of […] induced inhibition of cAMP formation at 3 uM; format: functional, cell-based
[33] = target: T2, Adenosine receptor A3 (Homo sapiens); test: as §3, with “0.001” for “0.01”; settings: Membrane, filed as positive allosteric modulator, time 3.0 hrs

Compound: CCCC(CCC)c1nc2c(Nc3ccc(C#CCCCCCCCCN(C)C)cc3)nc3ccccc3c2[nH]1
fold change (FC) [2]: 4

Compound: CCCC(CCC)c1nc2c(Nc3ccc(C#CCCCCCCCCCN)cc3)nc3ccccc3c2[nH]1
Activity (Homo sapiens): inactive
Activity [1]: Active
Activity [6]: inactive
Activity [7]: inactive
fold change (FC) [2]: 4
Activity [8]: inactive
Activity [9]: inactive
Activity [10]: inactive
Activity [11]: inactive
Activity [12]: inactive
Activity [13]: inactive
Activity [14]: inactive
Activity [15]: inactive
Activity [16]: inactive
Activity [17]: inactive
Activity [18]: inactive
Activity [19]: inactive
Activity [20]: inactive
Activity [21]: inactive
Activity [3]: Active
Activity [22]: inactive

Compound: CCCC(CCC)c1nc2c(Nc3ccc(C#CCCN)cc3)nc3ccccc3c2[nH]1
Activity [3]: Active

Compound: Clc1ccc(Nc2nc3ccccc3c3nc(C4CCCCC4)sc23)cc1Cl
Activity [5]: Active
Activity [23]: Active

Compound: CCCC(CCC)c1nc2c(Nc3ccc(C#CCCCCCCCCNCCCCN)cc3)nc3ccccc3c2[nH]1
fold change (FC) [2]: 12

Compound: CCCC(CCC)c1nc2c([nH]1)c(Nc1ccc(C#CCCCCCCCCCCN)cc1)nc1ccccc12
Activity [1]: Active
fold change (FC) [2]: 2.5
Activity [3]: Active

Compound: CN(c1ccc(Cl)c(Cl)c1)c1nc2ccccc2c2[nH]c(C3CCCCC3)nc12
Activity [5]: Active

Compound: CCCC(CCC)c1nc2c(Nc3ccc(C#CCCCCCCCCN)cc3)nc3ccccc3c2[nH]1
Activity (Homo sapiens): inactive
Emax [25]: 157%
Activity [1]: Active
Activity [6]: inactive
Activity [26]: inactive
Activity [27]: inactive
Activity [7]: inactive
Activity [28]: inactive
fold change (FC) [2]: 4
Activity [5]: Active
Activity [8]: inactive
Activity [9]: inactive
fold change (FC) [29]: 9
Emax [30]: 117%
Activity [10]: inactive
Activity [11]: inactive
Activity [12]: inactive
Activity [13]: inactive
Activity [31]: Active
Activity [32]: inactive
Activity [14]: inactive
Activity [15]: inactive
Activity [16]: inactive
Activity [17]: inactive
Activity [18]: inactive
Activity [19]: inactive
Activity [20]: inactive
Activity [21]: inactive
Activity [22]: inactive
Emax [33]: 112%

Compound: CCCC(CCC)c1nc2c(Nc3ccc(C#CCCCCCCCCCN4CCCCC4)cc3)nc3ccccc3c2[nH]1
fold change (FC) [2]: 4

Compound: Clc1ccc(Nc2nc3ccccc3c3nc(C4CCCCC4)oc23)cc1Cl
Activity [4]: Active
Activity [23]: Active

Compound: CCCC(CCC)c1nc2c(Nc3ccc(C#CCCCCCN)cc3)nc3ccccc3c2[nH]1
Activity [1]: Active
Activity [3]: Active

Compound: CCCC(CCC)c1nc2c(Nc3ccc(/C=C/C(=O)NCCCCCCCCN)cc3)nc3ccccc3c2[nH]1
Activity [4]: Active
Activity [5]: Active

Second part, the compound after the results:

Activity [1]: Active
fold change (FC) [2]: 7.4
Activity [3]: Active
Compound: CCCC(CCC)c1nc2c(Nc3ccc(C#CCCCCCCCN)cc3)nc3ccccc3c2[nH]1

Activity [4]: Active
fold change (FC) [2]: 2.5
Compound: CCCC(CCC)c1nc2c(Nc3ccc(I)cc3)nc3ccccc3c2n1Cc1ccccc1

fold change (FC) [2]: 9.5
Compound: CCCC(CCC)c1nc2c(Nc3ccc(C#CCCCCCCCCN=C(N)N)cc3)nc3ccccc3c2[nH]1

Activity [4]: Active
Activity [5]: Active
Compound: CCCC(CCC)c1nc2c(Sc3ccc(Cl)c(Cl)c3)nc3ccccc3c2[nH]1

Activity [3]: Active
Compound: CCCC(CCC)c1nc2c(Nc3ccc(C#CCCCN)cc3)nc3ccccc3c2[nH]1

Activity [4]: Active
Activity [5]: Active
Compound: Clc1ccc(Sc2nc3ccccc3c3[nH]c(C4CCCCC4)nc23)cc1Cl

Activity [1]: Active
Activity [3]: Active
Compound: CCCC(CCC)c1nc2c(Nc3ccc(C#CCCCCN)cc3)nc3ccccc3c2[nH]1

Activity [4]: Active
Activity [5]: Active
Compound: CCCC(CCC)c1nc2c(Oc3ccc(Cl)c(Cl)c3)nc3ccccc3c2[nH]1

fold change (FC) [2]: 2.5
Compound: CCCC(CCC)c1nc2c(Nc3ccc(/C=C/CCCCCCCCN)cc3)nc3ccccc3c2[nH]1

Activity [24]: inactive
Compound: Clc1ccc(Nc2nc3ccccc3c3sc(C4CCCCC4)nc23)cc1Cl

Activity [3]: Active
Compound: CCCC(CCC)c1nc2c(Nc3ccc(I)cc3)nc3ccccc3c2[nH]1

Activity [4]: Active
Activity [5]: Active
Compound: CCCC(CCC)c1nc2c(Oc3ccccc3)nc3ccccc3c2[nH]1

Activity [1]: Active
Activity [3]: Active
Compound: CCCC(CCC)c1nc2c(Nc3ccc(C#CCCCCCCN)cc3)nc3ccccc3c2[nH]1

Activity [4]: Active
Compound: OCCn1c(C2CCCCC2)nc2c(Nc3ccc(Cl)c(Cl)c3)nc3ccccc3c21

Activity [3]: Active
Compound: CCCC(CCC)c1nc2c(Nc3cccc(C#CCCCCCCCCN)c3)nc3ccccc3c2[nH]1

Activity [4]: Active
Activity [5]: Active
Compound: Clc1ccc(Oc2nc3ccccc3c3[nH]c(C4CCCCC4)nc23)cc1Cl

fold change (FC) [2]: 4
Compound: CCCC(CCC)c1nc2c(Nc3ccc(C#CCCCCCCCCCN4CCCC4)cc3)nc3ccccc3c2[nH]1

Activity [3]: Active
Compound: CCCC(CCC)c1nc2c(Nc3ccc(C#CCN)cc3)nc3ccccc3c2[nH]1
